Source: article PMC8751734 (Cell Chemical Biology, 2022)

Target: SARS-CoV-2 PL^pro (Severe acute respiratory syndrome coronavirus 2, UniProt P0DTD1)
Type: biochemical

## CN(C)c1ccc2cc3ccc(N(C)C)cc3nc2c1 [acridine orange base]
  dose-dependent inhibition of PL^pro, compared with ACF: less active than the parent compound

## Nc1ccc2cc3ccc(N)cc3nc2c1.O=S(=O)(O)O [acridine-3,6-diamine sulfate]
  dose-dependent inhibition of PL^pro, compared with ACF: less active than the parent compound
